# Data published in US20160326098A1, “Pharmaceutically Active Compound for Use as Anti-inflammatory Agent” (Pax Forschung GmbH, priority 2013, published 2016).
# Experiments:
# [1] = Body weight, mice with gastric injury without inflammation; assay type: in vivo; conditions: 1.11 mmol/kg force-fed, one day after gavage, FIG. 2
# Description: (§1) First experiments regarding the effect of the compound of formula (I) and a pharmaceutical composition comprising the compound of formula (I) (clear aqueous solution of compound of formula (I) at pH 4.8), respectively, on gastric injury without inflammation were conducted on mice. 48 animals were randomly allocated into three groups. Group A (n=16) served as sham-operated controls. Samples of all animals were drawn on day 1 of the clinical tests. On day 2 the animals of group B (n=16) were force-fed acetylsalicylic acid (ASS) (1.11 mmol/kg body weight). Group C (n=16) was force-fed 1.11 mmol/kg body weight of the compound according to the invention. Group A only received the respective solvent (25% ethanol in water). One day after the gavage, additional samples were drawn. Fluorescence confocal endomicroscopy was performed to examine the microvasculature and morphologic changes of the mucosa of the distal colon, and full-thickness tissue samples and venous blood samples were taken to determine the biochemical changes in the colon and plasma. The effects were determined by way of measurement of body weight, blood gas analysation and biopsy. ASS was chosen as a comparative example due to its structural similarity and its known activity as anti-inflammatory agent.
# [2] = Haematocrit in blood, rats with gastric injury without inflammation; assay type: in vivo; conditions: 1.11 mmol/kg; for percentage of haematocrit in the blood / haematocrit level, low haematocrit data group (severe bleeding with plasma and cell loss): vs control group H; for percentage of haematocrit in the blood: FIG. 18; for haematocrit level, low haematocrit data group (severe bleeding with plasma and cell loss): FIG. 20; for haematocrit level, high haematocrit data group (bleeding with plasma loss): vs sham group H, FIG. 19
# Description: The medicinal activity of the compound according to the invention and the pharmaceutical composition according to the invention was tested in a series of experiments performed on rats. The experiments were performed on male Sprague-Dawley rats (280-320 g) housed in plastic cages in a thermoneutral environment (21° C.±2° C.) with a 12 h dark-light cycle. The animals, fed on a normal diet with tap water ad libitum, were randomly allocated into experimental groups according to the feeding protocols.
# (§2) Further experiments regarding the effect of a compound of formula (I) and a pharmaceutical composition comprising a compound of formula (I), respectively, on gastric injury without inflammation were conducted on rats. 15 animals were randomly allocated into three groups. Group H (n=5) served as sham-operated controls. Samples of all animals were drawn on day 1 of the clinical tests. On day 2 the animals of group I (n=5) were force-fed acetylsalicylic acid (ASS) (1.11 mmol/kg body weight). Group K (n=5) was force-fed 1.11 mmol/kg body weight of the compound according to the invention. Group H only received the respective solvent (25% ethanol in water). One day after the gavage, additional samples were drawn. Fluorescence confocal endomicroscopy was performed to examine the microvasculature and morphologic changes of the mucosa of the distal colon, and full-thickness tissue samples and venous blood samples were taken to determine the biochemical changes in the colon and plasma. The effects were determined by way of measurement of body weight, blood gas analysation and biopsy. ASS was chosen as a comparative example due to its structural similarity and its known activity as anti-inflammatory agent.
# On the basis of the haematocrit measurements, the data can be divided into two groups:
# a) high haematocrit level, indicating bleeding with plasma loss (FIG. 19); and b) low haematocrit level, indicating severe bleeding with plasma and cell loss (FIG. 20).
# nitrite/nitrate (NOx) [3] = experiment: Nitrite/nitrate level, colitis animals, comparison with GM-20 (FIG. 35); assay type: in vivo, rats; conditions: 1.11 mmol/kg body weight, vs sham control group P
# Description: (§3) The levels of plasma nitrite/nitrate (NOx), stable end products of NO were measured by the Griess reaction. This assay depends on the reduction of nitrate to nitrite, which is then converted into a colored azo dye compound that is detected spectrophotometrically at 540 nm.
# The above-described clinical studies were repeated with animals having colitis which was induced as described above. 20 animals (rats) were randomly divided into four groups, wherein group L served as sham-operated control, having no colitis, group M served as second control having colitis but receiving no further treatment, group N having colitis and being treated with 1.11 mmol/kg body weight of ASS and group O having colitis and being treated with 1.11 mmol/kg of the compound according to the invention. One day after the animals received the enema with TNBS (40 mg/kg i.c.), wherein the animals of group L only received the respective solvent, the animals of group N and O were treated with ASS and the compound according to the invention, respectively. The other animals only received the respective solvent again. Two days after the enema the effects of the treatment were determined by measurement of body weight, blood gas analysis and biopsy. […] Surgery was performed to allow registration of the hemodynamic parameters at 1 h intervals for 6 h (cardiac output [CO] data were measured only at the end of the experiments). […] In addition, fluorescence confocal endomicroscopy was performed to examine the microvasculature and morphologic changes of the mucosa of the distal colon, and full-thickness tissue samples and venous blood samples were taken to determine the biochemical changes in the colon and plasma.
# The tests were conducted according to the above described protocol. […] Comparative compound GM-20 is described in the state of the art as being suitable for the therapeutic treatment pathologic disorders characterized by degranulation of the mast cells caused by immunogenic hyperstimulation (see U.S. Pat. No. 5,506,224) The nitrite/nitrate level was measured as described above.
# nitrite/nitrate (NOx) [4] = experiment: Nitrite/nitrate level in blood, rats with gastric injury without inflammation; assay type: in vivo; conditions: 1.11 mmol/kg, vs control group H, FIG. 25
# Description: as §3
# as §2, with “ASS was chosen as a comparative example due to its structural similarity and its known activity as anti-inflammatory agent.” left out
# nitrite/nitrate (NOx) [5] = experiment: Tissue nitrite/nitrate level, mice with gastric injury without inflammation; assay type: in vivo; conditions: gastric and duodenal tissue, 1.11 mmol/kg, vs control group A and group C, FIGS. 7a/7b
# Description: […] This assay depends on the reduction of nitrate to nitrite, which is then converted into a colored azo dye compound that is detected spectrophotometrically at 540 nm.
# as §1, with “ASS was chosen as a comparative example due to its structural similarity and its known activity as anti-inflammatory agent.” left out
# [6] = tested on: High mobility group box protein 1 (HMGB-1); experiment: Plasma high-mobility group protein B1, rats with TNBS-induced colitis; assay type: in vivo; conditions: 1.11 mmol/kg, day 3, FIG. 31
# Description: Colonic inflammation was induced by intracolonic administration of TNBS (2,4,6-trinitrobenzenesulfonic acid) (40 mg/kg in 0.25 ml of 25% aqueous ethanol) through an 8-cm-long soft plastic catheter under transient diethylether anesthesia. In the sham-operated groups, only the vehicle for TNBS was administered. The animals were deprived of food, but not water, for 12 h before the enemas.
# High mobility group box protein 1 (HMGB-1) measurements in plasma:
# Blood samples were drawn into chilled polypropylene tubes containing EDTA (1 mg/ml) and were centrifuged at 1200 g for 10 min at 4° C. The plasma samples were then collected and stored at −70° C. until assay. Plasma concentration of HMGB-1 was measured by a commercially available HMGB-1 ELISA kit (Shino-Test Corporation, Kanagawa, Japan).
# The above-described clinical studies were repeated with animals having colitis which was induced as described above. […] Two days after the enema the effects of the treatment were determined by measurement of body weight, blood gas analysis and biopsy. […] Surgery was performed to allow registration of the hemodynamic parameters at 1 h intervals for 6 h (cardiac output [CO] data were measured only at the end of the experiments). […]
Structure (SMILES),change in body weight [1],percentage of haematocrit in the blood [2],"haematocrit level, low haematocrit data group (severe bleeding with plasma and cell loss) [2]","haematocrit level, high haematocrit data group (bleeding with plasma loss) [2]",nitrite/nitrate level (nitrite/nitrate (NOx) [3]),nitrite/nitrate level in the blood (nitrite/nitrate (NOx) [4]),nitrite/nitrate level (nitrite/nitrate (NOx) [5]),concentration of the high-mobility group protein B1 in the plasma [6]
"CC(=O)Oc1ccccc1C(=O)O [ASS, acetylsalicylic acid, reference compound]",severe loss of body weight,severe change in the haematocrit level,severe drop,increase of the haematocrit level,increased nitrite/nitrate level,increased nitrite/nitrate level,significant difference in the nitrite/nitrate level,–
CC(=O)Oc1ccccc1C(=O)NC(CO)(CO)CO [compound according to the invention],only showed a minor loss in body weight,No change in the haematocrit level,no changes could be detected,no change in the haematocrit level,did not lead to an increase in the nitrite/nitrate level,–,–,significant reduction
